Consider 30 compounds from patent publication US9168259B2 (GRÜNENTHAL GMBH, priority 2010, dated 2015).

This assay addresses T1, KCNQ2/3 channels (Homo sapiens, UniProt O43525+O43526).
T1 construct: expressed in transfected cells
The assay can be described thus: Fluorescence assay using a voltage sensitive dye (fluorimetry). The format is cell-based.

Where [1] appears, read: CHO-K1, plateau effect relative to saturated retigabine (50 μM) = 100%, CHO-K1 cells expressing KCNQ2/3, negative values = antagonistic, read-out: Fluorimetry % efficacy (retigabine = 100%).
Setting [2] is: CHO-K1 cells expressing KCNQ2/3, IC50 where % efficacy is negative, read-out: Fluorimetry EC50/IC50.

SMILES strings stand for the structures. Read-outs that look alike come from different tables or passages of the source.

T1 sequence (O43526 whole entry): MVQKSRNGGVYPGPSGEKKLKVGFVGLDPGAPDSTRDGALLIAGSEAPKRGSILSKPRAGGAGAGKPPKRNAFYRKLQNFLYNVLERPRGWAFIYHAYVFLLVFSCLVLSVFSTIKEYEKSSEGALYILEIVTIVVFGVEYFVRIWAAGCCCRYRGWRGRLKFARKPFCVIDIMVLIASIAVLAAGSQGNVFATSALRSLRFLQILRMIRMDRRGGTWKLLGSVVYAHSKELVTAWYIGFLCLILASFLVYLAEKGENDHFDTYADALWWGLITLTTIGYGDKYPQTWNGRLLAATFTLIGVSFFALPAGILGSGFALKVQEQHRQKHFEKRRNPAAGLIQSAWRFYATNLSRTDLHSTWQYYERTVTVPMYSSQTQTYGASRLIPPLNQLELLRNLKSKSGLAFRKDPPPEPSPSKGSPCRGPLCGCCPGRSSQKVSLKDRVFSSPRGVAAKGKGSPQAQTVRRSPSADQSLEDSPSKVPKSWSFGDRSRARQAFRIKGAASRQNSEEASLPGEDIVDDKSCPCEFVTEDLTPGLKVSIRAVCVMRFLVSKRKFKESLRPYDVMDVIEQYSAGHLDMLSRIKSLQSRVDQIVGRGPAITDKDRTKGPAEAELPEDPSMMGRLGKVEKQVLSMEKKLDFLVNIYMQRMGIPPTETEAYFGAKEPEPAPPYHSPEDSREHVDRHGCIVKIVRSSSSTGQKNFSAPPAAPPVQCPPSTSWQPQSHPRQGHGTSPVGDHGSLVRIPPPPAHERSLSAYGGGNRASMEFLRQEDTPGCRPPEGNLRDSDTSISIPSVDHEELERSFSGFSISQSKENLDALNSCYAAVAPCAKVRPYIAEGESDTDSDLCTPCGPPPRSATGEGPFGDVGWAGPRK
T1 sequence (O43525 whole entry): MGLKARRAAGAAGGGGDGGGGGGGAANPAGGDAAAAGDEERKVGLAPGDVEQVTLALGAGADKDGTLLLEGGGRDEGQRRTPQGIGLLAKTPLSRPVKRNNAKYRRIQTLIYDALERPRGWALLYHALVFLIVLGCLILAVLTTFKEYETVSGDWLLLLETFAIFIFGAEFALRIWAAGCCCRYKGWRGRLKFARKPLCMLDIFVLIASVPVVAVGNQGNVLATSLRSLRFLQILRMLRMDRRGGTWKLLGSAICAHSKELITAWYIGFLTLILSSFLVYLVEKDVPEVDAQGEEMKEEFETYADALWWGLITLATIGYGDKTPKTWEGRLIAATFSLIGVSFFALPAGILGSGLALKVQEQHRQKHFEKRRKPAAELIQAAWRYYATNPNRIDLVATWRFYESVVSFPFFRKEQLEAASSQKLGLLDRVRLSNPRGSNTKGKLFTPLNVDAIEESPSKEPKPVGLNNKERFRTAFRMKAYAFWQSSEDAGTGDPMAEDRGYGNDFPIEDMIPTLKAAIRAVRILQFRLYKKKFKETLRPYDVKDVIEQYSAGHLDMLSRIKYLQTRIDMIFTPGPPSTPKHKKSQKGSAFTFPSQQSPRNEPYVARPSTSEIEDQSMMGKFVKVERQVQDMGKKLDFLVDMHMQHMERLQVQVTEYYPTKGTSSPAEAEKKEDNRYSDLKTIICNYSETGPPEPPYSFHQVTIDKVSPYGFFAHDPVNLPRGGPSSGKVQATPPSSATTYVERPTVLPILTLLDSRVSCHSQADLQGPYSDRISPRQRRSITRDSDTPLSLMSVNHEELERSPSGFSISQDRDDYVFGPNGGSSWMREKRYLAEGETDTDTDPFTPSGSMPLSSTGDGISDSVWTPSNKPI

As for `Cc1cc(N2CCOCC2)nc(C2CC2)c1C(=O)NCc1ccc(F)c(F)c1` [Example 332, 2-Cyclopropyl-N-[(3,4-difluoro-phenyl)-methyl]-4-methyl-6-morpholin-4-yl-pyridine-3-carboxylic acid amide], the Emax under setting [1] worked out at 166%. The EC50 under setting [2] stood at 109 nM.
Take `CCSc1nc(N2CCc3ccccc32)cc(C)c1C(=O)NCc1cccc(F)c1` [Example 305, 6-(2,3-Dihydro-1H-indol-1-yl)-2-ethylsulfanyl-N-[(3-fluorophenyl)-methyl]-4-methyl-pyridine-3-carboxylic acid amide]: the Emax under setting [1] came out at 57%.
In the case of `CCSc1nc(N(C)C)cc(C)c1C(=O)NCCCC(C)(C)C` [Example 210, 6-Dimethylamino-N-(4,4-dimethyl-pentyl)-2-ethylsulfanyl-4-methyl-pyridine-3-carboxylic acid amide], under setting [1], the Emax stood at 223%. Also, under setting [2], the EC50 was 187 nM.
Consider `CCSc1nc(N2CCOC[C@H]2C)cc(C)c1C(=O)NCc1ccc(F)cc1` [Example 177, 2-Ethylsulfanyl-N-[(4-fluorophenyl)-methyl]-4-methyl-6-[(3R)-3-methyl-morpholin-4-yl]-pyridine-3-carboxylic acid amide], for which the Emax under setting [1] came out at 174%. Moreover, the EC50 under setting [2] was found to be 97 nM.
The compound `CCc1cc(N2CCOCC2)nc(CC)c1C(=O)NCc1ccc(Cl)cc1` [Example 359, N-[(4-Chlorophenyl)-methyl]-2,4-diethyl-6-morpholin-4-yl-pyridine-3-carboxylic acid amide] displayed an EC50 of 237 nM. Besides, where the note is “CHO-K1, read-out: Fluorimetry % efficacy (retigabine = 100%)”, the Emax is 141%.
Consider `COc1nc(N2CCOCC2)cc(C)c1C(=O)NCc1ccc(C(F)(F)F)cc1` [Example 117, 2-Methoxy-4-methyl-6-morpholin-4-yl-N-[[4-(trifluoromethyl)-phenyl]-methyl]pyridine-3-carboxylic acid amide], for which the Emax under setting [1] came to 128%. In addition, the EC50 under setting [2] is 268 nM.
The corresponding values for `CCSc1nc(N2CCCCCC2)cc(C)c1C(=O)NCc1cccc(F)c1` [Example 136, 6-(Azepan-1-yl)-2-ethylsulfanyl-N-[(3-fluorophenyl)-methyl]-4-methyl-pyridine-3-carboxylic acid amide] are 171% and 108 nM.
The like results for `CCN(C)c1nc(N2CCOCC2)cc(C)c1C(=O)NCc1ccc(C(F)(F)F)cc1` [Example 188, 2-(Ethyl-methyl-amino)-4-methyl-6-morpholin-4-yl-N-[[4-(trifluoromethyl)-phenyl]-methyl]pyridine-3-carboxylic acid amide] were, in that order, 154% and 343 nM.
`CCSc1nc(N2CCn3cc(C(F)(F)F)nc3C2)cc(C)c1C(=O)NCc1cccc(F)c1` [Example 243, 2-Ethylsulfanyl-N-[(3-fluorophenyl)-methyl]-4-methyl-6-[2-(trifluoromethyl)-5,6,7,8-tetrahydro-imidazo[1,2-a]pyrazin-7-yl]-pyridine-3-carboxylic acid amide]: under setting [1], the Emax worked out at 105%. The EC50 under setting [2] worked out at 1280 nM.
For `CCSc1nc(N2CCOCC2)cc(C)c1C(=O)NCCCC#N` [Example 160, N-(3-Cyano-propyl)-2-ethylsulfanyl-4-methyl-6-morpholin-4-yl-pyridine-3-carboxylic acid amide], the Emax under setting [1] came to 70%.
For the compound `CSc1nc(N2CCOC[C@H]2C)cc(C)c1C(=O)NCc1ccc(F)cc1` [Example 176, N-[(4-Fluorophenyl)-methyl]-4-methyl-6-[(3R)-3-methyl-morpholin-4-yl]-2-methylsulfanyl-pyridine-3-carboxylic acid amide], the Emax under setting [1] amounted to 215%. For the same compound, the EC50 under setting [2] turned out to be 136 nM.
For the compound `Cc1cc(N2CCOCC2)nc(C2CC2)c1C(=O)NCc1cccc(F)c1` [Example 330, 2-Cyclopropyl-N-[(3-fluorophenyl)-methyl]-4-methyl-6-morpholin-4-yl-pyridine-3-carboxylic acid amide], under setting [1], the Emax amounted to 156%. In addition, under setting [2], the EC50 is 168 nM.
The like results for `CCSc1nc(N2CCOCC2)cc(OC)c1C(=O)NCc1cccc(F)c1` [Example 336, 2-Ethylsulfanyl-N-[(3-fluorophenyl)-methyl]-4-methoxy-6-morpholin-4-yl-pyridine-3-carboxylic acid amide] were, in that order, 183% and 430 nM.
The like results for `CCSc1nc(N2CCOCC2)cc(C)c1C(=O)NCc1ccccc1-c1ccc(F)cc1` [Example 71, 2-Ethylsulfanyl-N-[[2-(4-fluorophenyl)-phenyl]-methyl]-4-methyl-6-morpholin-4-yl-pyridine-3-carboxylic acid amide] were, in that order, -102% and 275 nM.
On to `COCCSc1nc(N2CCOCC2)cc(C)c1C(=O)NCCCC(C)(C)C` [Example 337, N-(4,4-Dimethyl-pentyl)-2-(2-methoxy-ethylsulfanyl)-4-methyl-6-morpholin-4-yl-pyridine-3-carboxylic acid amide], for which the Emax under setting [1] was 237%. Besides, the EC50 under setting [2] was found to be 117 nM.
The corresponding values for `CCSc1nc(N2CCOCC2)cc(C)c1C(=O)NCCCc1cccnc1` [Example 114, 2-Ethylsulfanyl-4-methyl-6-morpholin-4-yl-N-(3-pyridin-3-yl-propyl)-pyridine-3-carboxylic acid amide] are 126% and 9380 nM.
The like results for `CCSc1nc(N2CCOCC2)cc(C)c1C(=O)NCc1ccc(Cl)cc1` [Example 124, N-[(4-Chlorophenyl)-methyl]-2-ethylsulfanyl-4-methyl-6-morpholin-4-yl-pyridine-3-carboxylic acid amide] were, in that order, 149% and 82 nM.
The corresponding values for `Cc1cc(N2CCOCC2)nc(C2CC2)c1C(=O)NCc1ccc(F)cc1` [Example 331, 2-Cyclopropyl-N-[(4-fluorophenyl)-methyl]-4-methyl-6-morpholin-4-yl-pyridine-3-carboxylic acid amide] are 144% and 148 nM.
Consider `CCSc1nc(N2CCOCC2)cc(C)c1C(=O)NCc1cccc(F)n1` [Example 45, 2-Ethylsulfanyl-N-[(6-fluoro-pyridin-2-yl)-methyl]-4-methyl-6-morpholin-4-yl-pyridine-3-carboxylic acid amide], for which the Emax under setting [1] was found to be 151%. Further, the EC50 under setting [2] was determined as 3140 nM.
The corresponding values for `CCSc1nc(N2CC(C)OCC2C)cc(C)c1C(=O)NCc1cccc(F)c1` (stereo not shown) [Example 240, 6-(2,5-Dimethyl-morpholin-4-yl)-2-ethylsulfanyl-N-[(3-fluorophenyl)-methyl]-4-methyl-pyridine-3-carboxylic acid amide] are 174% and 394 nM.
The corresponding values for `CCSc1nc(N2CCO[C@H](COC)C2)cc(C)c1C(=O)NCc1cccc(F)c1` [Example 224, 2-Ethylsulfanyl-N-[(3-fluorophenyl)-methyl]-6-[(2S)-2-(methoxymethyl)-morpholin-4-yl]-4-methyl-pyridine-3-carboxylic acid amide] are 136% and 693 nM.
The like results for `CCSc1nc(N2CCOCC2)cc(C)c1C(=O)NCc1cccc(S(C)(=O)=O)c1` [Example 231, 2-Ethylsulfanyl-4-methyl-N-[(3-methylsulfonyl-phenyl)-methyl]-6-morpholin-4-yl-pyridine-3-carboxylic acid amide] were, in that order, 61% and 10400 nM.
As to `Cc1cc(N2CCOCC2)nc(C2CC2)c1C(=O)NCCCC(C)(C)C` [Example 328, 2-Cyclopropyl-N-(4,4-dimethyl-pentyl)-4-methyl-6-morpholin-4-yl-pyridine-3-carboxylic acid amide], under setting [1], the Emax was 230%. The EC50 under setting [2] was 44 nM.
With `CCSc1nc(N2CCOCC2)cc(C)c1C(=O)NCc1ccc(C#N)c(F)c1` [Example 268, N-[(4-Cyano-3-fluoro-phenyl)-methyl]-2-ethylsulfanyl-4-methyl-6-morpholin-4-yl-pyridine-3-carboxylic acid amide], the Emax under setting [1] was found to be 142%. Besides, under setting [2], the EC50 is 286 nM.
As to `COCc1cc(CNC(=O)c2c(C)cc(N3CCOCC3)nc2C2CC2)ccc1F` [Example 351, 2-Cyclopropyl-N-[[4-fluoro-3-(methoxymethyl)-phenyl]methyl]-4-methyl-6-morpholin-4-yl-pyridine-3-carboxylic acid amide], the Emax under setting [1] was found to be 118%. Moreover, the EC50 under setting [2] amounted to 489 nM.
The like results for `CCSc1nc(N2CCOCC2)cc(C)c1C(=O)NCCCC1(C)COC1` [Example 343, 2-Ethylsulfanyl-4-methyl-N-[3-(3-methyl-oxetan-3-yl)-propyl]-6-morpholin-4-yl-pyridine-3-carboxylic acid amide] were, in that order, 163% and 6840 nM.
The like results for `CCOc1nc(N2CCOCC2)cc(C)c1C(=O)NCc1ccc(F)cc1` [Example 64, 2-Ethoxy-N-[(4-fluorophenyl)-methyl]-4-methyl-6-morpholin-4-yl-pyridine-3-carboxylic acid amide] were, in that order, 137% and 216 nM.
The corresponding values for `COc1nc(N2CCOC[C@H]2C)cc(C)c1C(=O)NCc1ccc(C(F)(F)F)cc1` [Example 238, 2-Methoxy-4-methyl-6-[(3R)-3-methyl-morpholin-4-yl]-N-[[4-(trifluoromethyl)-phenyl]-methyl]pyridine-3-carboxylic acid amide] are 164% and 102 nM.
For `Cc1cc(N2CCOCC2)nc(N(C)C)c1C(=O)NCc1cc(F)cc(F)c1` [Example 242, N-[(3,5-Difluoro-phenyl)-methyl]-2-dimethylamino-4-methyl-6-morpholin-4-yl-pyridine-3-carboxylic acid amide], the Emax under setting [1] worked out at 214%. Besides, the EC50 under setting [2] came out at 366 nM.
In the case of `CCSc1nc(N2CCOCC2)cc(C)c1C(=O)NCCc1ccccc1` [Example 54, 2-Ethylsulfanyl-4-methyl-6-morpholin-4-yl-N-phenethyl-pyridine-3-carboxylic acid amide], the Emax under setting [1] is 103%. For the same compound, the EC50 under setting [2] is 2120 nM.
